How the values were obtained:
Assay in all cases: cryo-EM structure of the complex
[1] = target: T1, GTP-binding protein 10, GTPBP10 (Mus musculus, UniProt Q8K013); details: 0.5 mM GMPPNP in lysis and resuspension buffers, 10 mM Mg(OAc)2, BS3 cross-linked; relatively poor local resolution, ligand placed in binding pocket; mtLSU states B1 and B2
T1 construct: BS3 cross-linked
T1 sequence (Q8K013 1-366): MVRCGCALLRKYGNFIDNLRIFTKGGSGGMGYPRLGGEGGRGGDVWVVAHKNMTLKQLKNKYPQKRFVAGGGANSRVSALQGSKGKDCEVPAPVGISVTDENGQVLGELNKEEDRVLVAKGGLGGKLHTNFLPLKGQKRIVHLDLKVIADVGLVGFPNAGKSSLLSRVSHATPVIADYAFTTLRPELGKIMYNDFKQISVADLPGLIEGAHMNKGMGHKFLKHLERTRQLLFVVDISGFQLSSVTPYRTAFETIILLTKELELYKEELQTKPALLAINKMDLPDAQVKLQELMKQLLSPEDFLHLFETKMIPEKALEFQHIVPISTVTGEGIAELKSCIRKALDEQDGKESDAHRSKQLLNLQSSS

[2] = target: T2, GTP-binding protein 7 GTPBP7 (Mus musculus, UniProt Q8R2R6); details: 0.5 mM GMPPNP in lysis and resuspension buffers, 10 mM Mg(OAc)2, BS3 cross-linked; pre-hydrolysis (closed) conformation; mtLSU states B1 and B2
T2 construct: gene Mtg1; BS3 cross-linked
T2 sequence (Q8R2R6 1-326): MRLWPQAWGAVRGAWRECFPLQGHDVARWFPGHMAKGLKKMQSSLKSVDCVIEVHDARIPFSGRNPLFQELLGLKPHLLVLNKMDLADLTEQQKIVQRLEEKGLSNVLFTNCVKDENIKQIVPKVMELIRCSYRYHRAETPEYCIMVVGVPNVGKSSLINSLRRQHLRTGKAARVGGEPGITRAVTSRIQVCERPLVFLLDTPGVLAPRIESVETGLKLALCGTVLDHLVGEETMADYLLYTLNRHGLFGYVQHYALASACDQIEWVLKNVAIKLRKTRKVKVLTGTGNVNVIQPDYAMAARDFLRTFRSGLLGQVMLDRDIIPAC

[3] = target: rRNA methyltransferase 2, MRM2 (Mus musculus, UniProt Q9CPY0); format: binding; details: mtLSU state D; endogenous ligand, not added; SAM-depleted mitochondria; native sample, no GMPPNP
rRNA methyltransferase 2, MRM2, sequence (Q9CPY0 25-246): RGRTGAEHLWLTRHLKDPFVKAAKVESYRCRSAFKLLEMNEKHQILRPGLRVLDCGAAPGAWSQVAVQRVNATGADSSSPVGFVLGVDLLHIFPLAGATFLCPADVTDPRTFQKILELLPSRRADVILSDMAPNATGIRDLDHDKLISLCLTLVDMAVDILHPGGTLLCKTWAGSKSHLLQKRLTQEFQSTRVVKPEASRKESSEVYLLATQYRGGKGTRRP

Structure (SMILES) | cryo-EM structure of the complex [1] | cryo-EM structure of the complex [2] | cryo-EM structure of the complex [3]
Nc1nc2c(ncn2[C@@H]2O[C@H](COP(=O)(O)OP(=O)(O)NP(=O)(O)O)[C@@H](O)[C@H]2O)c(=O)[nH]1 [GMPPNP] | A molecule of GMPPNP was placed in the binding pockets of GTPBP7 and GTPBP10. | GTPBP7 adopts its GMPPNP-bound pre-hydrolysis conformation as observed previously | –
Nc1ncnc2c1ncn2[C@@H]1O[C@H](CSCC[C@H](N)C(=O)O)[C@@H](O)[C@H]1O [SAH] | – | – | A molecule of SAH was placed in the binding pocket of MRM2

— publication PMC12198368, “The mitochondrial methylation potential gates mitoribosome assembly” (Nature Communications, 2025)
